Experimental data taken from US20230407373A1 (priority 2020, published 2023).
Entries after “also recorded” stand apart in the source; their conditions may differ. Like-named read-outs stand apart in the source and are kept apart here.

Assays:
HCoV-OC43 gRNA and sgRNA = format: binding; conditions: for target (unweighted spectral count, OC43 Probe II capture) / target (unweighted spectral count): tested against no-probe control; for target (unweighted spectral count, OC43 Probe II capture): FDR<10%; for target (unweighted spectral count, OC43 Probe II) / background (unweighted spectral count, no-probe control): type n_48_v, 48 hpi; for target (unweighted spectral count, OC43 Probe II): OC43 Probe II capture on infected cells; for background (unweighted spectral count, no-probe control): no-probe control on infected cells; for target (unweighted spectral count): OC43 Probe II, infected cells
[1] = tested on: SARS-CoV-2 gRNA and sgRNAs; format: binding; conditions: for target (unweighted spectral count in RNP capture): Probe II capture, LC-MS/MS LFQ; for background (unweighted spectral count in control): no-probe control pull-down, used as background for Probe II
gRNA of HCoV-OC43 = format: binding; conditions: for target (spectral count) / background (spectral count): type g_36_m, 36 hpi, Probe I; for target (spectral count): HCoV-OC43-infected HCT-8 cells; for background (spectral count): uninfected-probe control; for target (spectral count, OC43 Probe I RNP capture) / background (spectral count, no-probe control): type n_48_v: 48 hours post-infection; for target (spectral count, OC43 Probe I RNP capture): infected cells, unweighted spectral count; for background (spectral count, no-probe control): no-probe control on infected cells
SARS-CoV-2 = format: cell-based; conditions: Calu-3 cells, 50 nM siRNA, RT-qPCR, relative to siNC
SARS-CoV-2 gRNA = format: binding; conditions: for target (unweighted spectral count of the protein in the RNP capture): LC-MS/MS, Probe I sample (first 199 lines of Table 2)

Row | Substance | target (unweighted spectral count, OC43 Probe II capture) (HCoV-OC43 gRNA and sgRNA; 24 hpi, type n_24_v) | target (unweighted spectral count, OC43 Probe II) (HCoV-OC43 gRNA and sgRNA) | background (unweighted spectral count, no-probe control) (HCoV-OC43 gRNA and sgRNA) | target (unweighted spectral count in RNP capture) ([1]; […]) | background (unweighted spectral count in control) [1] | target (spectral count) (gRNA of HCoV-OC43) | background (spectral count) (gRNA of HCoV-OC43) | change in viral RNA levels (gRNA, N sgRNA) after siRNA depletion (SARS-CoV-2) | target (unweighted spectral count, OC43 Probe II capture) (HCoV-OC43 gRNA and sgRNA; 36 hpi, type n_36_v) | target (unweighted spectral count) (HCoV-OC43 gRNA and sgRNA; 12 hpi (type n_12_v)) | target (unweighted spectral count) (HCoV-OC43 gRNA and sgRNA; 24 hpi (type n_24_v)) | target (spectral count) (HCoV-OC43 gRNA and sgRNA; type s_36_m, HCoV-OC43-infected HCT-8 cells, 36 hpi, Probe II) | background (spectral count) (HCoV-OC43 gRNA and sgRNA; type s_36_m, uninfected-probe control, 36 hpi, Probe II) | enrichment in SARS-CoV-2 Probe I RNP capture (SARS-CoV-2 gRNA) | target (unweighted spectral count of the protein in the RNP capture) (SARS-CoV-2 gRNA) | enrichment in SARS-CoV-2 Probe II RNP capture [1] | target (spectral count, OC43 Probe I RNP capture) (gRNA of HCoV-OC43) | background (spectral count, no-probe control) (gRNA of HCoV-OC43) | target (unweighted spectral count of the protein in the RNP capture experiment) ([1]; […], LC-MS/MS label-free quantification, probe pool not given) | back-ground (unweighted spectral count of the protein in the control experiment) ([1]; protein background of the control (e.g. no-probe) experiment, […])
1 | TRIM25: host protein, UniProt Q14258 | 5 | 13 | 3 | 20 | 1 | 14 | 1 | increased viral RNAs | – | – | – | – | – | – | – | – | – | – | – | –
2 | PABPC1: host protein, UniProt P11940 | – | 26 | 2 | – | – | 22 | 1 | – | 23 | 7 | 18 | 29 | 3 | enriched; also recorded: found in the SARS-CoV-2 experiments | 29 | enriched; also recorded: found in the SARS-CoV-2 experiments | 23 | 2 | – | –
3 | SAFB2 | – | 7 | 1 | – | – | – | – | – | 5 | – | – | – | – | – | 8 | – | 9 | 1 | 6 | 1
4 | XRCC6 | – | 17 | 1 | 9 | 1 | – | – | – | 11 | – | 7 | – | – | – | 10 | – | 12 | 1 | – | –
5 | YBX3: host protein, UniProt P16989 | – | – | – | 73 | 1 | 13 | 2 | – | – | 7 | 10 | – | – | – | 41 | – | – | – | – | –
